According to patent US20110009351A1, “SCREENING ASSAY TO IDENTIFY CORRECTORS OF PROTEIN TRAFFICKING DEFECTS” (Traffick Therepeutics Inc., priority 2007, published 2011):
Counter-ions that a name gives are not always drawn. Like-named read-outs stand apart in the source and are kept apart here.

Key:
F508del CFTR = molecular target: T1, F508del CFTR (Homo sapiens, UniProt P13569, DEL508-508); assay: YFP fluorescence quenching functional assay (iodide influx), HEK293 cells with F508del CFTR and halide sensitive YFP; format: cell-based; conditions: 10 μM, 24 h, nc = 100% pc = 69.2; for remaining activity at 10 µM: HEK293, read-out: % YFP quench
T1 construct: expressed in transfected cells; host or cells: HEK293 Griptite cells stably expressing F508del CFTR, transiently transfected with halide-sensitive eYFP
Experimental: In addition to the MDS compounds, the 1120 Prestwick Library compounds were screened. (See FIGS. 7 to 12.) Of the compounds, one qualified as a “strong” hit, 3 as “medium” hits and 57 as “weak” hits. The Z score for the assay was 0.62. The top 50 hits were further tested in a counter screen in which the halide sensitive fluorescent compound (YFP) was expressed inside cells (Table 2). After incubation with the test compounds the ability of the cells to uptake iodide was measure by decreasing YFP fluorescence. In these cells this can only occur if functional CFTR is present at the cell surface (FIG. 7). The hits were also tested for the appearance of the Band C form of CFTR. […] The functionality of the compounds was further studied by the use of Iodide efflux assays for each compound in both BHK and the more physiologically relevant CFBE cells. […] FIG. 10 is a table of results for the 15 hit compounds which summarizes many experiments. […] The results for the best 15 compounds from the Prestwick Library, or “Prestwick 15”, are shown FIGS. 8, 9 and 10.
Strongly adhesive Human […] Kidney cells stably expressing both the human macrophage scavenger receptor (HEK293 Griptite, Invitrogen) and F508del CFTR were plated in 96-well plates and transiently transfected with pcDNA3 plasmid encoding a halide sensitive variant of eYFP. After 24-48 h later cells were exposed to 10 μM test compound in triplicate and incubated for an additional 24 h. Cells were stimulated for 20 minutes with a in a buffer containing 25 μM forskolin, 45 μM IBMX and 50 μM genistein final concentration. The high content screening assay was performed using a Cellomics platform. Iodide was added robotically to a final concentration of 50 mM and the resulting decrease in fluorescence was measured. Images were taken at time 0 and stored for subsequent use when calculating a mask so that only those cells that express YFP at time 0 are measured. The quenching was detected in 15 images taken over the course of an experiment lasting 40 seconds. Each test compound was compared to the following two controls: a negative control without drugs to assess photobleaching that may occur when the same field of view is repeatedly imaged, and a positive control with cells treated with a known potentiator. Results were generated from 150-300 cells per well.

ΔF508-CFTR = ΔF508-CFTR (Homo sapiens, UniProt P13569, DEL508-508); format: cell-based; parameters: which was then ligated into full length pNUT-CFTR linearized using Hpa1 and Pml1; expressed in transfected cells; conditions: for hit in screen (class letter): BHK cells
Experimental: BHK cells expressing 3HA-tagged ΔF508-CFTR between passages 5-8 were seeded in 96-well plates (Corning half area, black-sided, clear bottom) at 15,000 cells per well and incubated with culture medium for 24 h at 37° C. Each well was then treated with a different test compound (80 compounds per plate) for 24 h at 20 μM final concentration. The remaining 16 wells on each plate were used for control conditions. […] Cells were fixed in a 4% paraformaldehyde solution, washed with PBS, and blocked with PBS containing 5% fetal bovine serum (FBS) for 1 hat 4° C.
Blocking solution was replaced with 15 μl of primary antibody solution containing 1% FBS and mouse monoclonal anti-HA antibody (1:150 dilution, Sigma) in PBS. The plates were sealed and left at 4° C. overnight. After three washes with 100 μl PBS, cells were incubated for 1 h with 15 μl of secondary antibody solution containing 1% FBS and anti-mouse IgG conjugated with FITC (1:100 dilution, Sigma) in PBS. Cells were again washed three times with 100 μl of PBS and analyzed in a plate reader (Analyst™ HT96.384, Biosystems; 488 nm excitation/510 nm emission). […] The mean fluorescence of four untreated wells was used as the background signal when calculating deviations of the 80 compound-treated wells. Hits were then cherry-picked into reservoir plates and re-tested in duplicate using the same assay.
BHK cells expressing ΔF508-CFTR were incubated with test compounds (20 μM) for 24 hours at 37° C. in a 96 well format. Plasma membrane expression of ΔF508-CFTR was then assayed by immunofluorescence using a primary antibody directed against the inserted 3HA tag and a secondary antibody conjugated with a fluorophore (FITC). […] The positive compounds were selected and retested in duplicate to obtain an N of 3. At the re-screening stage, the intrinsic fluorescence of each potential hit was also measured and the fluorescent ones were not considered further.
Screening was performed using BHK cells that stably express F508-CFTR bearing three tandem haemagglutinin-epitope tags (3HA) and linker sequences in the fourth extracellular loop after amino acid 901 (Howard et al., 1995; Carlile et al., 2007; Robert et al., 2008). […] Screening was performed using the Prestwick Chemical Library of 1120 high-purity compounds.

[1] = Prestwick library, initial corrector assay
[2] = Prestwick library, initial corrector assay, standard deviations above untreated controls

Chain of ΔF508-CFTR (P13569 with tags, fused parts or gaps DEL508-508): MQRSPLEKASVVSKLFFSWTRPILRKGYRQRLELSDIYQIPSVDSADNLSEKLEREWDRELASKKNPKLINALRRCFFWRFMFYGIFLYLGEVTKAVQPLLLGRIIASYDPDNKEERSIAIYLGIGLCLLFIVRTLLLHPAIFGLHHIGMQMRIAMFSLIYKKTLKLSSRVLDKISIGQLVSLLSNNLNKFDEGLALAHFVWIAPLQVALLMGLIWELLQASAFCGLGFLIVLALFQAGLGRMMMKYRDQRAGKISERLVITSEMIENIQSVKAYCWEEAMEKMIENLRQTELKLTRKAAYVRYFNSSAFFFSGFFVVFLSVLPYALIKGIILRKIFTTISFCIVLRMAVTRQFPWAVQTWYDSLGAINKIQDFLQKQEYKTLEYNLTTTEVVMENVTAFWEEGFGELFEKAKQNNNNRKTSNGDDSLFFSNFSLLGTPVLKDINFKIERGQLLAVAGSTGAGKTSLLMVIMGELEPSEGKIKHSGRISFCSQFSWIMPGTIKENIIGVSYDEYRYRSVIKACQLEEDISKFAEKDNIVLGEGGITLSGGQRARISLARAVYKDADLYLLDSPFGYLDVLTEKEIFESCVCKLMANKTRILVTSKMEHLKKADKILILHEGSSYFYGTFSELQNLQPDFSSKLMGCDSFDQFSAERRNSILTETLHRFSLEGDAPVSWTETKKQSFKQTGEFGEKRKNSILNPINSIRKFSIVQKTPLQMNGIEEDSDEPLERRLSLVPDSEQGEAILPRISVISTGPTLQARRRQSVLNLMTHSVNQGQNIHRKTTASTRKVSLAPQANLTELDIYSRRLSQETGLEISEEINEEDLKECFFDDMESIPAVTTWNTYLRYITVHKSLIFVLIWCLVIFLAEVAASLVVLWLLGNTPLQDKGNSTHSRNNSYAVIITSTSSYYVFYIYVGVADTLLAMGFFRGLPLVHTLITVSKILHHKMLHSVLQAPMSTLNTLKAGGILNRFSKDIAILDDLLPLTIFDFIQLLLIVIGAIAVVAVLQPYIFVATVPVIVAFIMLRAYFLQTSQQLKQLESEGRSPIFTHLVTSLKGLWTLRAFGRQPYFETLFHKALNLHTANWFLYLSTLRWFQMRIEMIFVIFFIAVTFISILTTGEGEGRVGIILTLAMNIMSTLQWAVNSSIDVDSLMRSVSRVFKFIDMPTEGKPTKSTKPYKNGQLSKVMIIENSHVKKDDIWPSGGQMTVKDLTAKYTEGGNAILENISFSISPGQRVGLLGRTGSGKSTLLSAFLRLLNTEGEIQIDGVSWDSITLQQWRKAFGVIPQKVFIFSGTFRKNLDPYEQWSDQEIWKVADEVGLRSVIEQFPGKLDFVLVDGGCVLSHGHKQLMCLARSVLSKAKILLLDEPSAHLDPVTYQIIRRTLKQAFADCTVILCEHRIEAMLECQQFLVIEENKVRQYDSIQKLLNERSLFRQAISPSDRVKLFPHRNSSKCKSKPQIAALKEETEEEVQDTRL
T1 sequence (P13569 with tags, fused parts or gaps DEL508-508): as above

Compound	remaining activity at 10 µM (F508del CFTR)	hit in screen (class letter) (ΔF508-CFTR; [1])	hit in screen (score) (ΔF508-CFTR; [2])	hit in screen (score) (ΔF508-CFTR)	% YFP quench (F508del CFTR)
CC[C@@H](CO)NC(=O)[C@@H]1C=C2c3cccc4[nH]cc(c34)C[C@H]2N(C)C1 [Methylergometrine maleate]	94%	W (Medium and weak hits were defined as compounds giving a cell fluorescence signal that was between 2 and 3 or 1 and 2 standard deviations, respectively, above untreated control wells)	1.1		
CC(C)(C(=O)c1cccnc1)c1cccnc1 [Metyrapone]	98%	W (Medium and weak hits were defined as compounds giving a cell fluorescence signal that was between 2 and 3 or 1 and 2 standard deviations, respectively, above untreated control wells)	1.4		
CCOc1ccc2ccccc2c1C(=O)N[C@@H]1C(=O)N2[C@@H]1SC(C)(C)[C@@H]2C(=O)O [Nafcillin sodium salt monohydrate]	97%			W 1.2	
CCN(CC)CC#CCOC(=O)C(O)(c1ccccc1)C1CCCCC1 (stereo not shown) [Oxybutynin chloride]	83%	W (Medium and weak hits were defined as compounds giving a cell fluorescence signal that was between 2 and 3 or 1 and 2 standard deviations, respectively, above untreated control wells)	1.2		
CCCCOc1ccc(OCCCN2CCOCC2)cc1 [Pramoxine hydrochloride]	89%	W (Medium and weak hits were defined as compounds giving a cell fluorescence signal that was between 2 and 3 or 1 and 2 standard deviations, respectively, above untreated control wells)	1.2		
Cl.OC(CCN1CCCC1)(c1ccccc1)C1CCCCC1 (stereo not shown) [Procycildine hydrochloride]		W (Medium and weak hits were defined as compounds giving a cell fluorescence signal that was between 2 and 3 or 1 and 2 standard deviations, respectively, above untreated control wells)	1.1		92%
CC[C@H]1OC(=O)[C@H](C)[C@@H](O[C@H]2C[C@@](C)(OC)[C@@H](O)[C@H](C)O2)[C@H](C)[C@@H](O[C@@H]2O[C@H](C)C[C@H](N(C)C)[C@H]2O)[C@](C)(O)C[C@@H](C)/C(=N\OCOCCOC)[C@H](C)[C@@H](O)[C@]1(C)O [Roxithromycin]	100%	W (Medium and weak hits were defined as compounds giving a cell fluorescence signal that was between 2 and 3 or 1 and 2 standard deviations, respectively, above untreated control wells)	1.2		
CC(C)Cc1ccc([C@H](C)C(=O)O)cc1 [S-(+)-Ibuorofen]			1.1		91%
CC(C)(C)NCC(O)c1ccc(O)c(CO)c1 (stereo not shown) [Salbutamol]	97%	W (Medium and weak hits were defined as compounds giving a cell fluorescence signal that was between 2 and 3 or 1 and 2 standard deviations, respectively, above untreated control wells)	1.0		
Cc1scc2c1N(C(=O)CN1CCN(C)CC1)c1ccccc1NC2=O [Telenzepine dihydrochloride]	85%	W (Medium and weak hits were defined as compounds giving a cell fluorescence signal that was between 2 and 3 or 1 and 2 standard deviations, respectively, above untreated control wells)	1.3		
O=C1CCC(N2C(=O)c3ccccc3C2=O)C(=O)N1 (stereo not shown) [Thalidomide]	92%	M (Medium and weak hits were defined as compounds giving a cell fluorescence signal that was between 2 and 3 or 1 and 2 standard deviations, respectively, above untreated control wells)	2.0		
c1ccc2[nH]c(-c3cscn3)nc2c1 [Tiabendazole]	907%	W (Medium and weak hits were defined as compounds giving a cell fluorescence signal that was between 2 and 3 or 1 and 2 standard deviations, respectively, above untreated control wells)	1.0		
